Here are results for five molecules from patent publication US20020123456A1, “Methods of identifying agents affecting atrophy and hypertrophy” (priority 2001, published 2002).

One data set deals with PI(3)K/Akt/mTOR pathway. Nature of the data set: PI(3)K/Akt/mTOR and ERK signalling in C2C12 differentiated myotubes (immunoblot, kinase assay). Conditions: for phosphorylation of downstream targets of the PI(3)K/Akt/mTOR pathway (Akt, p70S6K, GSK3, PHAS-1/4E-BP1): IGF-1 10 ng ml-1 or Ca-I 1.0 μM, 15 min. It is filed as cell-based. From the text:
(§1) As a first step towards examining the roles of the calcineurin/NFAT and PI(3)K/Akt pathways during IGF-induced myotube hypertrophy, we added IGF-1 to differentiated myotubes and determined whether these pathways were activated. Calcineurin is a protein phosphatase that is activated by increases in intracellular calcium levels, which in turn dephosphorylates the NFAT transcription factors; this dephosphorylation results in the translocation of NFATs to the nucleus and subsequent gene transcription. NFAT dephosphorylation and nuclear translocation are therefore markers of calcineurin activation (FIG. 7, right). For markers of activation of the PI(3)K/Akt pathway, the phosphorylation of Akt itself or of downstream targets such as p70S6 kinase (p70S6K), PHAS-1/4E-BP1 or GSK3 were used (FIG. 7).
(§2) Protein analysis of total cell lysates was conducted as described8. The antibodies used were anti-phospho-Erk1/2 (Thr 202/Tyr 204; NEB); anti-phospho-Akt (Ser 473; NEB); anti-phospho- GSK3 (Ser 9/21; NEB); anti-phospho-p70S6K (Thr 389; NEB); anti-phospho-PHAS-1/4E-BP1 (Thr 65; NEB); anti-Erk1/2 (UBI), anti-Akt (NEB), anti-p70S6K (C-18; Santa Cruz), anti-PHAS-1/4EBP1 (Zymed) and anti-NFAT-C1 (7A6; Santa Cruz).
(§3) Immunoprecipitations and immunoblotting were performed as described. Proteins were detected with the chemiluminescence detection system Renaissance; NEN). To measure the enzymatic activity of p70S6K an immunocomplex kinase assay was performed as described (Azpiazu, I., Saltiel, A. R., DePaoli-Roach, A. A. & Lawrence, J. C. J. Biol. Chem. 271, 5033-5039 (1996)).

For a further data set, the system named is C2C12 myotubes. Nature of the data set: C2C12 myotube hypertrophy (myotube diameter). The format is cell-based. The note with it: LY294002 10 μM; for IGF-1-induced myotube hypertrophy: D2 myotubes, IGF-1 10 ng ml-1 plus CsA 5 μM, rapamycin 2 ng ml-1, PD98059 or Ara-C 10 μM; for myotube size / hypertrophy, agent alone: D2 myotubes treated at day 2 after fusion, analysed day 4, IGF-1 10 ng ml-1, CsA 5 μM, Ca-I 1 μM. As to the method:
FIG. 9. […] Myotubes were treated at day 2 after fusion with the PI(3)K inhibitor LY294002 (LY; 10 μM), the mTOR inhibitor rapamycin (RAP, 2 ng ml-1), IGF-1 (10 ng ml-1) and with a combination of IGF-1 and each inhibitor, and analyzed for morphological effects at day 4. […] C2C12 myotubes were treated at day 2 after induction of differentiation with IGF-1 (10 ng ml-1) or a combination of Ara-C (10 μM) and IGF-1 (10 ng ml-1), and analysed the next day. Untreated myotubes are shown (CON). […] Quantification of myotube diameters is shown. The average number of nuclei per myotube is presented for each condition in the bottom row.
To distinguish between effects on myoblast differentiation and those on the trophic state of existing myofibres, we exploited the C2C12 myoblast differentiation system. C2C12 myoblasts proliferate until they reach confluence; then, in serum-poor medium, the myoblasts fuse into multi-nucleated myotubes. Differentiated myotubes are predominant by 2 days after fusion (D2 myotubes) and survive for another 3 days. […] IGF-1-induced myotube hypertrophy, as measured by an increase in diameter and an increase in total protein, is normally accompanied by an increase in nuclei within the myofibres.
To obtain more direct evidence, we next used the pharmacological inhibitors of the calcineurin and PI(3)K/Akt pathways in assays of IGF-1-induced myotube hypertrophy. Further, we introduced gene-expression vectors into the myotubes that induced the expression of either activators or dominant-negative blockers of these pathways.
C2C12 myoblasts were cultured and transfected as described (Glass, D. J. et al. Cold Spring Harb. Symp. Quant. Biol. 57, 53-62 (1992)). Flow cytometry and cell sorting were performed on a Cytomation MoFlo (Fort Collins, Colorado) high-speed cell sorter (FACS) (Rommel, C. et al. Science 286, 1738-1741 (1999)). Myoblasts were fused into myotubes at confluence, by shifting the medium to DMEM+2% horse serum. Myotube diameter was quantified as follows: 10 fields were chosen randomly, and approximately 10 myotubes were measured per field. The average diameter per myotube was calculated as the mean of ten measurements taken along the length of the myotube. For the constitutively active Akt, kinaseinactive Akt, wild-type Akt, wild-type SHIP2, dominant-negative SHIP2, constitutively active p70S6K and dominant-negative GSK3β constructs, transfected myotubes were determined by the co-expression of enhanced green fluorescent protein (EGFP; see below for construct details); thus, only transfected myotubes were assessed for hypertrophy. For the tetracycline-inducible calcineurin, myotubes expressing calcineurin were identified by EGFP expression, and comparisons were made between EGFP-positive and EGFP-negative myotubes. […]

The next data set deals with calcineurin/NFAT-C1. In words: NFAT-C1 phosphorylation and translocation in C2C12 differentiated myotubes (immunoblot). Conditions: for NFAT-C1 phosphorylation state and nuclear translocation: IGF-1 10 ng ml-1 or Ca-I 1.0 μM, 15 min. It is filed as cell-based.
From the text: as §1, §2, §3
Background: In western blotting, separated proteins are transferred to a membrane and probed.

Data set [1] can be described thus: Rapamycin given to control (surgically untreated) adult animals. It is filed as in vivo, rat. Conditions: rapamycin for 14 days, data not shown. An excerpt:
The above findings indicate that the Akt pathway and its downstream targets are activated during muscle hypertrophy in vivo. To begin to determine the role of these activations, we used treatment in vivo with rapamycin, a quite specific inhibitor of one important Akt target, mTOR. Rapamycin, a selective blocker of mTOR, blocked hypertrophy in all models without causing atrophy in control muscles Rapamycin binds to its intracellular receptor, forming a complex that then binds to and inhibits mTOR activity (Schmeizie, T. & Hall, M. N. Cell 103, 253-262 (2000).). […] Treatment with rapamycin produced no non-specific effects; that is, there was no effect on body weight or the baseline weight of non-overloaded hindlimb muscles in these animals. Further, rapamycin given to control (surgically untreated) adult animals for 14 days had no effect on body weight or muscle weight (data not shown). In addition to the above results from rats, similar results were obtained when this hypertrophy model was performed in mice (data not shown).

The subject of another data set is rat plantaris muscle. Nature of the data set: Compensatory hypertrophy of the plantaris after surgical overload. It is filed as in vivo. The method, then:
Female Sprague-Dawley rats (250-275 g) were anaesthetized with ketamine/xylazine (50/10 mg kg-1, intraperitoneally); with the use of aseptic surgical techniques the soleus, medial gastrocnemius and lateral gastrocnemius muscles were removed bilaterally, producing a functional overload on the plantaris muscles. In some instances, plasmid DNA (100 μl) was injected into the muscle immediately after the procedure. The hindlimbs of adult female SD rats (225-250 g) were unloaded by suspending their tails with a tail-traction bandage as described29. At the appropriate times, rats were killed and hindlimb muscles were removed, weighed and frozen in isopentane cooled with liquid nitrogen. Weight-matched surgically untreated rats served as controls.
Transfection in vivo. Constructs used encoded the following: (1) myristoylated, c.a. […]
Muscle fibre size was obtained from digitally imaged serial cross-sections of cryostat-sectioned muscle. Individual muscle fibres were outlined and cross-sectional area was determined with a computerassisted image analysis system (MetaMorph™; Universal Imaging Corporation). All data are expressed as means ±s.e.m. […]

Entries after “also recorded” stand apart in the source; their conditions may differ.

Take `COc1cccc(-c2cc(=O)c3ccccc3o2)c1N` [PD98059]: the “IGF-1-induced Akt / PI(3)K/Akt pathway activation” value with PI(3)K/Akt/mTOR pathway (IGF-1 10 ng ml-1 15 min, CsA 5 μM, LY294002 10 μM, rapamycin 2 ng ml-1, PD98059) is reported as “without affecting steps in the PI(3)K/Akt/mTOR pathway”. In addition, the “IGF-1-induced ERK activation” value with PI(3)K/Akt/mTOR pathway (IGF-1 10 ng ml-1 15 min, LY294002 10 μM, PD98059 10 μM) is listed as “did indeed block ERK activation”. Also, the IGF-1-induced myotube hypertrophy result in the data set on C2C12 myotubes is “did not block phenotypic hypertrophy”.

Consider `CNc1ccc2oc(C[C@H]3O[C@@]4(CC[C@H]3C)O[C@H]([C@H](C)C(=O)c3ccc[nH]3)[C@H](C)C[C@H]4C)nc2c1C(=O)O` [calcium ionophore, A23187], for which the “phosphorylation of downstream targets of the PI(3)K/Akt/mTOR pathway (Akt, p70S6K, GSK3, PHAS-1/4E-BP1)” value in the data set on PI(3)K/Akt/mTOR pathway is recorded as “none could be induced”; with PI(3)K/Akt/mTOR pathway (listed as Ca-I), “had no effect on these kinases”. Besides, the “NFAT-C1 phosphorylation state and nuclear translocation” value in the data set on calcineurin/NFAT-C1 was “dephosphorylation-induced downshift in NFAT”. Besides, the “myotube size / hypertrophy, agent alone” value with C2C12 myotubes was “thinner myotubes”.

Take `CO[C@H]1C[C@@H]2CC[C@@H](C)[C@@](O)(O2)C(=O)C(=O)N2CCCC[C@H]2C(=O)O[C@H]([C@H](C)C[C@@H]2CC[C@@H](O)[C@H](OC)C2)CC(=O)[C@H](C)/C=C(\C)[C@@H](O)[C@@H](OC)C(=O)[C@H](C)C[C@H](C)/C=C/C=C/C=C/1C` [rapamycin]: in data set [1], the “body weight or muscle weight” value is “had no effect”. Besides, the blockage of hypertrophy in the data set with rat plantaris muscle (adaptive hypertrophy in adult animals, rapamycin) is reported as 95%. The “body weight or baseline weight of non-overloaded hindlimb muscles” value with rat plantaris muscle (overloaded rats treated with rapamycin 1.5 mg kg-1 i.p. daily) is on record as “no effect”.

With IGF-1, in the data set with PI(3)K/Akt/mTOR pathway, the “phosphorylation of downstream targets of the PI(3)K/Akt/mTOR pathway (Akt, p70S6K, GSK3, PHAS-1/4E-BP1)” value is reported as “induced the phosphorylation”. For the same molecule, the “calcium-ionophore-induced dephosphorylation and translocation of NFAT-C1” value in the data set on calcineurin/NFAT-C1 (Ca-I 1.0 μM, CsA 5 μM before stimulation or IGF-1 10 ng ml-1 simultaneously) was “blunted”. The “NFAT-C1 phosphorylation state and nuclear translocation” value with calcineurin/NFAT-C1 was “hyperphosphorylation of NFAT”. Moreover, in the data set with C2C12 myotubes, the “myotube size / hypertrophy, agent alone” value is “resulting in hypertrophy”.

As to cytosine-β-D-arabinofuranoside [Ara-C], the IGF-1-induced myotube hypertrophy entry in the data set on C2C12 myotubes is “myotube diameter and total protein still increase; also recorded: does not inhibit IGF-1-mediated hypertrophy”.
